From patent publication US20230416196A1, “DIMER OF BIGUANIDINES AND THEIR THERAPEUTIC USES” (INSTITUT CURIE, priority 2020, published 2023)
Where a name gives a salt, the structure may show the parent alone.

Key:
macrophage activation = assay: Macrophage activation, copper(I)-targeting agents; type: cell-based
U937 cells = assay: Cell viability assay (CellTiter-Blue) on lymphoma cell line U937; type: cell-based; details: Homo sapiens, U-937, 72 h treatment
Description: Cell culture. U-937 cells were grown in an incubator equilibrated at 37° C. with 5% CO2, grown to confluence and split with Trypsin/EDTA (Gibco, […]01) once or twice a week according to confluence. U-937 (ATCC, HTB-132) were cultured in RPMI 1640 GLUTAMAX (ThermoFisher Scientific, 61870044) supplemented with 10% Fetal Bovine Serum (FBS, Gibco, 10270-106) and Penicillin-Streptomycin mixture (BioWhittaker/Lonza, DE17-602E). […] Peripheral blood samples were collected from distinct healthy donors (Etablissement Français du Sang). Pan monocytes were isolated by negative magnetic sorting using microbeads according to the manufacturer's instructions (Miltenyi Biotec, 130-096-537), and cultured in RPMI 1640 supplemented with glutamine (Thermo Fisher Scientific, 61870010), 10% fetal bovine serum and exposed to granulocyte-macrophage colony-stimulating factor (GM-CSF, Miltenyi Biotec, 130-093-866, 100 ng/mL) to induce differentiation into macrophages (MDM). […] Cell viability assay (IC50). Cell viability assay was carried out by plating 1000 cells/well in 96-well plates. Cells were treated for 72 h in a range between to 25 nM and […] using serial dilutions. The inventors followed the manufacturer's protocol. In brief, CellTiter-Blue® reagent (G8081, Promega) was added after 72 h treatment and cells were incubated for 3 h before recording fluorescence intensities (λex. 560/20 nm; λem. 590/10 nm) using a Perkin Elmer Wallac 1420 Victor2 Microplate Reader.

[1] = tested on: activated macrophages (act. MDM), CD86 activation marker; assay: CD86 macrophage activation marker by flow cytometry in LPS/IFNγ-activated monocyte-derived macrophages (Example 4); type: cell-based, human; details: LCCs at 10 μM, 24 h co-treatment; several values per compound
Description: Cell culture. U-937 cells were grown in an incubator equilibrated at 37° C. with 5% CO2, grown to confluence and split with Trypsin/EDTA (Gibco, […]01) once or twice a week according to confluence. U-937 (ATCC, HTB-132) were cultured in RPMI 1640 GLUTAMAX (ThermoFisher Scientific, 61870044) supplemented with 10% Fetal Bovine Serum (FBS, Gibco, 10270-106) and Penicillin-Streptomycin mixture (BioWhittaker/Lonza, DE17-602E). […] Peripheral blood samples were collected from distinct healthy donors (Etablissement Français du Sang). Pan monocytes were isolated by negative magnetic sorting using microbeads according to the manufacturer's instructions (Miltenyi Biotec, 130-096-537), and cultured in RPMI 1640 supplemented with glutamine (Thermo Fisher Scientific, 61870010), 10% fetal bovine serum and exposed to granulocyte-macrophage colony-stimulating factor (GM-CSF, Miltenyi Biotec, 130-093-866, 100 ng/mL) to induce differentiation into macrophages (MDM). […] Flow cytometry. Cells were washed with ice-cold 1×PBS, incubated with Fc block (Human TruStain FcX, Biolegend, 422302, 1/20) for 15 min, incubated with antibodies for 20 min at 4° C. and washed before analysis using a BD LSRFortessa X-20. Macrophages were analyzed with an antibody panel consisting of antibodies against the following cell surface proteins: CD44, CD80, CD86 and TfR1. The data were analyzed with FlowJo software v. 10.0.00003. […]

HMLER CD44^high/CD24^low = assay: Cell viability assay (CellTiter-Blue) on breast cancer stem cell model HMLER CD44high/CD24low; type: cell-based, human; details: for IC50: Homo sapiens, cell viability, 72 h treatment, read-out: IC50 against HMLER CD44^high/CD24^low
Description: Cell viability assay (IC50). Cell viability assay was carried out by plating 1000 cells/well in 96-well plates. Cells were treated for 72 h in a range between to 25 nM and […] using serial dilutions. The inventors followed the manufacturer's protocol. In brief, CellTiter-Blue® reagent (G8081, Promega) was added after 72 h treatment and cells were incubated for 3 h before recording fluorescence intensities (λex. 560/20 nm; λem. 590/10 nm) using a Perkin Elmer Wallac 1420 Victor2 Microplate Reader.
Cell culture. MCF7 (ATCC) cells, DU-145 (ATCC) cells and FC1245 cells were cultured in Dulbecco's Modified Eagle Medium GlutaMAX (DMEM, ThermoFisher Scientific, 61965059) supplemented with 10% Fetal Bovine Serum (FBS, Gibco, 10270-106) and Penicillin-Streptomycin mixture (BioWhittaker/Lonza, DE17-602E) unless stated otherwise. Primary lung circulating tumor cells (Celprogen, 36107-34CTC, Lot 219411) were grown using stem cell complete media (Celprogen, M36102-29PS) until the third passage. Circulating cancer cells were grown in stem cell ECM T75-flasks (Celprogen, E36102-29-T75) and ECM 6-well plates (Celprogen, E36102-29-6Well). HMLER cells ([…]) naturally repressing E-cadherin, obtained from human mammary epithelial cells infected with a retrovirus carrying hTERT, SV40 and the oncogenic allele H-rasV12, and HMLER CD44 and TFRC ko clones were cultured in DMEM/F12 (Thermo Fisher Scientific, 31331093) supplemented with 10% FBS (Thermo Fisher Scientific, 10270106), 10 μg/mL insulin (Sigma-Aldrich, 10516), 0.5 μg/mL hydrocortisone (Sigma-Aldrich, H0888) and 0.5 μg/mL puromycin (Life Technologies, A11138-02), unless stated otherwise. HMLER CD44^high cells were also supplemented with 10 ng/mL EGF (Miltenyi Biotech, 130-097-750).

IC50 (U937 cells) [µM] | Compound | further results
– | [NH4+].[NH4+].[SH-].[SH-].[S]=[Mo]=[S] [ATTM] | efficacy on macrophage activation (macrophage activation): lack of efficacy
3 | N=C1NCCCCCCCCNC(=N)NC(=N)NCCCCCCCCNC(=N)N1 [Coronaformin-8,8] | –
1 | N=C1NCCCCCCCCCCNC(=N)NC(=N)NCCCCCCCCCCNC(=N)N1 [Coronaformin-10,10] | –
0.5 | N=C1NCCCCCCCCCCCCNC(=N)NC(=N)NCCCCCCCCCCCCNC(=N)N1 [Coronaformin-12,12] | –
– | CC(C)(S)[C@@H](N)C(=O)O [D-Pen] | efficacy on macrophage activation (macrophage activation): lack of efficacy
2 | CCCNC(=N)NC(=N)NCCCCCCCCNC(=N)NC(=N)NCCC [LCC-8,3] | –
150 | CN(CCCCCCCCN(C)C(=N)NC(=N)N)C(=N)NC(=N)N [LCC-8Me] | Effect on CD86 macrophage activation marker (Flow cytometry) (% of activation marker compared to its level in activated macrophages) [1]: 89%
1 | CCNC(=N)NC(=N)NCCCCCCCCCCNC(=N)NC(=N)NCC [LCC-10,2] | –
0.6 | CCCNC(=N)NC(=N)NCCCCCCCCCCNC(=N)NC(=N)NCCC [LCC-10,3] | Effect on CD86 macrophage activation marker (Flow cytometry) (% of activation marker compared to its level in activated macrophages) [1]: 22%
20 | N=C(N)NC(=N)NCCCCCCCCCCNC(=N)NC(=N)N [LCC-10] | improved IC50 compared with metformin (HMLER CD44^high/CD24^low; HMLER CD44high/CD24low): about 400 fold; IC50 (HMLER CD44^high/CD24^low): 58 µM
6 | CN(CCCCCCCCCCCCN(C)C(=N)NC(=N)N)C(=N)NC(=N)N [LCC-12Me] | –
10000 | CN(C)C(=N)NC(=N)N [Metformin, 1,1-dimethylbiguanid hydrochloride, reference compound] | IC50 (HMLER CD44^high/CD24^low): 22600 µM
